Where “and” joins values, the source holds several entries; their conditions need not be identical. Equal entries are not always repeated. Where two headings read alike, the source gives them in different places.
Key:
HIV capsid = settings: ref Yant et al, Nat.Med, 2019;[4]; cited from earlier work
[1] = ref Yant et al, Nat.Med, 2019;[4]; cited from earlier work
SHIV-SF162P3 = experiment: microbe, parasite or virus in culture; format: cell-based, SHIV (in rhesus macaque, Macaca mulatta, PBMCs); settings: for % Virus Production, replicates n1–n3: experiments 1–7; for % Virus Production, MEAN: per experiment 1–7
Description: Freshly isolated PBMCs from three male rhesus macaque (M. mulatta) donors of Indian origin (HumanCells Biosciences) were cultured in RPMI-1640 cell culture medium (Life Technologies) supplemented with 10% heat-inactivated FBS (Hyclone), 2 mM glutamine and 100 U ml^−1 penicillin plus 100 μg ml^−1 streptomycin (complete RPMI). Before their use in the antiviral assays, rhesus PBMCs from three independent donors were pooled and activated at a density of 3 × 10^6 cells per ml for 72 h at 37 °C by the addition of 1 μg ml^–1 phytohemagglutinin (PHA, Sigma-Aldrich) and 50 U ml^−1 recombinant human interleukin-2 (IL-2) (Roche Diagnostics).
PHA/IL-2-stimulated rhesus PBMCs were infected in bulk culture with SHIV-SF162P3 at a concentration of 130 pg of p27 equivalent per million PBMCs. The cells were maintained in suspension by gently rocking the cultures mixed with virus inoculum for 3 h at 37 °C. The cells were then pelleted by centrifugation at 500g for 5 min, washed twice with complete RPMI to remove any unadsorbed virus and seeded into 96-well plates at a cell density of 2 × 10^5 cells per well in 100 μl. […] The cultures were incubated in a 5% CO2 incubator at 37 °C for 7 days. Cell-free supernatants derived from the PBMC cultures were harvested 7 days after infection, the amount of SHIV present was quantified using an SIV p27 antigen-capture ELISA assay (5436, Advanced Bioscience Laboratories) performed according to the manufacturer’s protocol, and the data were acquired using SoftMax Pro 6.3.1 software (Molecular Devices).

[2] = Plasma GS-CA1 pharmacokinetics in the repeat SHIV challenge study; format: in vivo, rhesus macaques of Indian origin; settings: 150 mg/kg single s.c.; for Plasma GS-CA1: individual animals
Description: For the challenge study, 24 outbred rhesus macaques of Indian origin were assigned to the three study groups with even sex and weight distributions. All animals were housed at Alpha Genesis (Yemassee, SC), and all procedures were conducted in compliance with all relevant local, state and federal regulations and were approved by the Alpha Genesis IACUC. […] The injection sites were monitored daily by veterinary staff for 3 days. Beginning in week 1, animals in all three groups were challenged by the intrarectal route with 1 ml of RPMI containing the specified dilution of a 3.62 × 10^3 TCID50 SHIV-SF162P3 stock. At each respective time point, the challenges were performed on the same day, using the same virus stock and inoculation method across the three groups. Whole blood was collected and processed into plasma and PBMCs as necessary to assess routine haematology, clinical chemistry, viral load and serology as well as for bioanalysis of drug levels. The animals were considered to be protected if they remained SHIV negative by plasma PCR assay and seronegative by enzyme immunoassay throughout the 15-week challenge phase and the 9-week follow-up.
Rhesus plasma samples were stored frozen at −80 °C.

Structure (SMILES): CC(C)(C#Cc1ccc(-c2ccc(Cl)c3c(NS(=O)(=O)C4CC4)nn(CC(F)F)c23)c([C@H](Cc2cc(F)cc(F)c2)NC(=O)Cn2nc(C(F)F)c3c2C(F)(F)[C@@H]2C[C@H]32)n1)S(C)(=O)=O [GS-CA1]
- Inhibits nuclear import (early-stage) (HIV capsid): Yes
- Inhibits proper capsid assembly (late-stage) (HIV capsid): Yes
- Inhibits virus production (late-stage) (HIV capsid): Yes
- T1/2, human cryopreserved hepatocytes [1]: 130 h
- % Virus Production, replicates n1–n3 (SHIV-SF162P3; 0.011 nM): 122% and 104% and 99% and 93% and 127% and 160% and 82% and 121% and 88% and 87% and 68%
- % Virus Production, MEAN (SHIV-SF162P3; 0.011 nM): 108% and 126% and 97% and 83% and 121% and 68%
- % Virus Production, replicates n1–n3 (SHIV-SF162P3; 0.034 nM): 106% and 78% and 72% and 136% and 114% and 75% and 116% and 105% and 181% and 64% and 89% and 82% and 53% and 93%
- % Virus Production, replicates n1–n3 (SHIV-SF162P3; 0.103 nM): 127% and 124% and 79% and 73% and 103% and 118% and 130% and 152% and 105% and 82% and 99% and 121% and 76% and 71%
- % Virus Production, MEAN (SHIV-SF162P3; 0.103 nM): 110% and 85% and 133% and 95% and 89% and 99% and 67%
- % Virus Production, replicates n1–n3 (SHIV-SF162P3; 0.309 nM): 75% and 74% and 102% and 149% and 120% and 72% and 78% and 94% and 103% and 109% and 66%
- % Virus Production, replicates n1–n3 (SHIV-SF162P3; 0.926 nM): 65% and 37% and 36% and 39% and 31% and 20% and 16% and 18% and 23% and 70% and 14% and 22%
- % Virus Production, replicates n1–n3 (SHIV-SF162P3; 2.778 nM): 0.408% and 2% and 2.34% and 1.77% and 1.55% and 0.489% and 2.2% and 1.37% and 0.76% and 0.799%
- % Virus Production, MEAN (SHIV-SF162P3; 2.778 nM): 1.61% and 1.79% and 1.35% and 1.16% and 2.6% and 1.28% and 0.0528%
- % Virus Production, replicates n1–n3 (SHIV-SF162P3; 8.333 nM): 1.76% and 1% and 0.517% and 0.425% and 0.705% and 0.145% and 0.0164% and 0.262% and 1.4% and 0.22% and 0.682% and 0.142%
- % Virus Production, MEAN (SHIV-SF162P3; 8.333 nM): 1.08% and 0.425% and 0.559% and 0.348% and 1.87% and 0.078% and 0.398%
- % Virus Production, replicates n1–n3 (SHIV-SF162P3; 25.000 nM): -0.0465% and -0.0193% and 0.798% and -0.276% and 0.164% and 0.276% and 1% and 0.434% and -0.106% and 0.12% and 0.292% and 0.064% and 0.0863%
- % Virus Production, MEAN (SHIV-SF162P3; 25.000 nM): 0.244% and 0.0545% and 0.436% and 0.159% and -0.387% and 0.675% and 0.293%
- Rhesus PBMC paEC95 (SHIV-SF162P3; EC95 × rhesus plasma shift): 30.2 nM and 30.2 ± 2.5 nM and 30 nM
- EC50 (SHIV-SF162P3; Simian immunodeficiency virus, PBMC, in Macaca mulatta, 168 h, read-out: EC50, rhesus PBMCs, SHIV-SF162P3, mean of 7 assays, SIV p27 ELISA day 7 post-infection): 0.72 nM
- EC50 (SHIV-SF162P3; Simian immunodeficiency virus, PBMC, in Macaca mulatta, 168 h, read-out: SHIV162P3-rhPBMC-EC50, individual experiments, single experiments n1–n7, SIV p27 ELISA day 7): 0.66 nM
- Rhesus PBMC EC95 (SHIV-SF162P3; calculated from SHIV EC50 and Hill slope: EC50 × (95/5)^1/n): 1.91 nM and 1.91 ± 0.16 nM and 1.9 nM
- EC50 (SHIV-SF162P3; read-out: SHIV162P3-rhPBMC-EC50, individual experiments, single experiments n1–n7, SIV p27 ELISA day 7): 0.71 nM and 0.777 nM and 0.868 nM and 0.535 nM and 0.74 nM (2×) and 0.661 nM and 0.78 nM and 0.714 nM and 0.87 nM and 0.54 nM
- time above the rhesus paEC95 [2]: 8–15 weeks
- time six times above the rhesus paEC95 [2]: 3–7 weeks
- Cmax ([2]; n=8, mean ± SD): 3.02 ± 1.07 µM
- Plasma GS-CA1 ([2]; Week 1): 899.55 nM
- Plasma GS-CA1 ([2]; Week 2): 1188.65 nM
- Plasma GS-CA1 ([2]; Week 3): 497.91 nM
- Plasma GS-CA1 ([2]; Week 4): 153.01 nM
- Plasma GS-CA1 ([2]; Week 5): 181.45 nM
- Plasma GS-CA1 ([2]; Week 6): 238.73 nM
- Plasma GS-CA1 ([2]; Week 7): 104 nM
- Plasma GS-CA1 ([2]; Week 8): 126.07 nM
- Plasma GS-CA1 ([2]; Week 9): 74.21 nM and 60.58 nM
- Plasma GS-CA1 ([2]; Week 10): 50.06 nM and 64.16 nM
- Plasma GS-CA1 ([2]; Week 11): 28.74 nM and 29.18 nM

Source: publication PMC8753592, “Long-acting capsid inhibitor protects macaques from repeat SHIV challenges” (Nature, 2021)
